Data published in US12544373B2, “Treatment of cancer, inflammatory diseases and autoimmune diseases” (Usher III Initiative, Inc., priority 2020, dated 2026).
Like-named read-outs stand apart in the source and are kept apart here.

Columns and labels:
Assay type in all cases: cell-based, human
CXF LS 174T = assay: CellTiter-Blue Cell Viability Assay (Example 2), colon; settings: for T/C %: 72 h
Description: (§1) The CellTiter-Blue® Cell Viability Assay was used to assess the viability of cells from various cancer cell lines, in the presence or absence of Compound 85 (at different concentrations). This assay provides a homogeneous, fluorometric method for estimating the number of viable cells present in multi-well plates. Viable cells retain the ability to reduce resazurin to resorufin, which is highly fluorescent. […] The fluorescence produced is proportional to the number of viable cells. There is a linear relationship between cell number and fluorescence.
(§2) Cancer cells (see Table 6) were harvested from exponential phase cultures, counted and plated in 96 well flat-bottom microtiter plates, at a cell density 6,000-20,000 cells/well, depending on the cell line's growth rate. The culture medium was supplemented with 10% (v/v) foetal calf serum and 50 μg/mL gentamicin (140 μL/well). Cultures were incubated at 37° C. and 5% CO2 in a humidified atmosphere.
(§3) Compound 85 was serially diluted in DMSO, and five Compound 85 concentrations in half-log increments were used: 0.03 μM, 0.09 μM, 0.30 μM, 1.0 μM, and 3.0 μM. After 24 h, 10 μL of Compound 85 (dissolved in DMSO) or control (DMSO) medium were added, in duplicates, and left on the cells for another 72 h. Compound 85 solutions were added to the assay plates using a Tecan Freedom EVO 200 robotic platform. The DMSO concentration was kept constant at 0.3% v/v across the assay plate.
(§4) After incubation of up to 72 hours, fluorescence (FU) was measured using the EnSpire® multimode plate reader (Perkin Elmer) (excitation λ=570 nm, emission λ=600 nm).
(§5) Cancer cell lines used: Compound 85's anti-cancer effect was tested in 20 human cancer-cell lines representing nine cancer types (Table 6).
(§6) The percentage of viable cells in the presence of Compound 85 (Test condition, T), at different concentrations, are presented in Table 7 and expressed as a percentage of the number of viable cells in the presence of DMSO without Compound 85 (Control condition, C).
(§7) The relative IC50 is determined as the Compound 85 concentration giving a response halfway between the maximum cell viability signal (i.e., a 100% cell viability, no Compound 85 response) and the minimal viability signal (i.e. maximum cell viability inhibition achieved by Compound 85), in a sigmoidal concentration-effect curve.
(§8) The absolute IC50 is determined as the concentration that is associated with a T/C ratio of 50%.

CXF HCC-2998 = assay: as above; settings: for T/C %: 72 h
Description: as §1, §2, §3, §4, §5, §6, §7, §8

PAXF 1657 = assay: CellTiter-Blue 2D monolayer assay (Example 1), pancreas; settings: for Test/Control (%): 72 h
Protocol: (§9) Compound 85 was assessed in 10 human tumor cell lines (see Table 3) for anti-cancer activity in vitro using a CellTiter-Blue® based 2D monolayer assay.
(§10) CellTiter-Blue® Cell Viability Assay: Tumor cells were grown at 37° C. in a humidified atmosphere with 5% CO2 in RPMI medium, supplemented with 10% (v/v) fetal calf serum and 50 μg/ml gentamicin (140 μl/well). Cultures were incubated at 37° C. and 5% CO2 in a humidified atmosphere. After 24 hours, 10 μl of Compound 85 was added, and left on the cells for another 72 hours (incubation period). Compound 85 was tested at 5 concentrations (0.003 μM, 0.03 μM, 0.3 μM, 3 μM, and 30 μM) and serially diluted in DMSO, mixed with cell culture medium, and added to the assay plates by using a Tecan Freedom EVO 200 robotic platform. The DMSO concentration was kept constant at 0.3% yip across the assay plate. Every 96 well plate included six DMSO-treated control wells and Compound 85-treated wells in duplicate at 5 concentrations. Viability of cells was quantified using the CellTiter-Blue® cell viability assay (Promega G8081). After incubation of cells, the CellTiter-Blue® reagent was brought to ambient temperature. Next, 20 μl of CellTiter-Blue® reagent were added to each well. After incubation tier up to 4 hours, fluorescence (FU) was measured using the EnSpire® multimode plate reader (Perkin Elmer) ([…]).
(§11) Data Evaluation: Sigmoidal concentration-response curves were fitted to the data points (test-versus-control; T/C values) obtained for each tumor model using 4 parameter non-linear curve fit (Charles River DRS Datawarehouse Software). Drug effects are expressed in terms of the percentage of the fluorescence signal, obtained by comparison of the mean signal in the treated wells with the mean signal of the untreated controls (T/C-value [%]) (Table 4). IC50 and IC70 values were reported as relative and absolute IC50 and IC70 values (Table 5). The absolute IC50 and IC70 values reflect the concentration of Compound 85 that achieves T/C=50% and T/C=30%, respectively. The relative IC50 value is the concentration of Compound 85 that gives a response half way between the top and bottom plateau of the sigmoidal concentration-response curve (inflection point of the curve).

PAXF HUP-T3 = assay: as above; settings: for Test/Control (%): 72 h
Protocol: as §9, §10, §11

PRXF PC-3 = assay: CellTiter-Blue 2D monolayer assay (Example 1), prostate; settings: for Test/Control (%): 72 h
Protocol: as §9, §10, §11

PRXF DU-145 = assay: as above; settings: for Test/Control (%): 72 h
Protocol: as §9, §10, §11

CC(C)(O)Cn1nc(-c2ccccc2)c2c(Cl)c(-c3ccccc3)nnc21 [Compound 85]
Absolute IC70 (CXF LS 174T): 0.474 µM
Relative IC70 (CXF LS 174T): 0.467 µM
T/C % (CXF LS 174T; 0.03 μM): 96%
T/C % (CXF LS 174T; 0.095 μM): 96%
T/C % (CXF LS 174T; 0.3 μM): 72%
T/C % (CXF LS 174T; 0.95 μM): 5%
T/C % (CXF LS 174T; 3.0 μM): 3%
IC50 (CXF LS 174T; read-out: Absolute IC50): 0.383 µM
IC50 (CXF LS 174T; read-out: Relative IC50): 0.384 µM
Absolute IC70 (CXF HCC-2998): 1.125 µM
Relative IC70 (CXF HCC-2998): 0.891 µM
T/C % (CXF HCC-2998; 0.03 μM): 98%
T/C % (CXF HCC-2998; 0.095 μM): 99%
T/C % (CXF HCC-2998; 0.3 μM): 98%
T/C % (CXF HCC-2998; 0.95 μM): 40%
T/C % (CXF HCC-2998; 3.0 μM): 22%
IC50 (CXF HCC-2998; read-out: Absolute IC50): 0.844 µM
IC50 (CXF HCC-2998; read-out: Relative IC50): 0.765 µM
Rel. IC70 (PAXF 1657): 2.043 µM
Test/Control (%) (PAXF 1657; 0.003 μM): 100%
Test/Control (%) (PAXF 1657; 0.03 μM): 100%
Test/Control (%) (PAXF 1657; 0.3 μM): 100%
Test/Control (%) (PAXF 1657; 3 μM): 3%
Test/Control (%) (PAXF 1657; 30 μM): 1%
Abs. IC70 (PAXF 1657; T/C=30%): 2.055 µM
IC50 (PAXF 1657; T/C=50%, read-out: Abs. IC50): 1.85 µM
Bot. (%) (PAXF 1657; bottom plateau of curve): 1%
IC50 (PAXF 1657; read-out: Rel. IC50): 1.84 µM
Top (%) (PAXF 1657; top plateau of curve): 100%
Rel. IC70 (PAXF HUP-T3): 1.505 µM
Test/Control (%) (PAXF HUP-T3; 0.003 μM): 100%
Test/Control (%) (PAXF HUP-T3; 0.03 μM): 101%
Test/Control (%) (PAXF HUP-T3; 0.3 μM): 79%
Test/Control (%) (PAXF HUP-T3; 3 μM): 16%
Test/Control (%) (PAXF HUP-T3; 30 μM): 6%
Abs. IC70 (PAXF HUP-T3; T/C=30%): 1.518 µM
IC50 (PAXF HUP-T3; T/C=50%, read-out: Abs. IC50): 0.794 µM
Bot. (%) (PAXF HUP-T3; bottom plateau of curve): 0%
IC50 (PAXF HUP-T3; read-out: Rel. IC50): 0.785 µM
Top (%) (PAXF HUP-T3; top plateau of curve): 101%
Rel. IC70 (PRXF PC-3): 1.326 µM
Test/Control (%) (PRXF PC-3; 0.003 μM): 104%
Test/Control (%) (PRXF PC-3; 0.03 μM): 103%
Test/Control (%) (PRXF PC-3; 0.3 μM): 103%
Test/Control (%) (PRXF PC-3; 3 μM): 2%
Test/Control (%) (PRXF PC-3; 30 μM): 1%
Abs. IC70 (PRXF PC-3; T/C=30%): 1.349 µM
IC50 (PRXF PC-3; T/C=50%, read-out: Abs. IC50): 1.1 µM
Bot. (%) (PRXF PC-3; bottom plateau of curve): 1%
IC50 (PRXF PC-3; read-out: Rel. IC50): 1.08 µM
Top (%) (PRXF PC-3; top plateau of curve): 103%
Rel. IC70 (PRXF DU-145): 1.376 µM
Test/Control (%) (PRXF DU-145; 0.003 μM): 100%
Test/Control (%) (PRXF DU-145; 0.03 μM): 110%
Test/Control (%) (PRXF DU-145; 0.3 μM): 102%
Test/Control (%) (PRXF DU-145; 3 μM): 11%
Test/Control (%) (PRXF DU-145; 30 μM): 6%
Abs. IC70 (PRXF DU-145; T/C=30%): 1.528 µM
IC50 (PRXF DU-145; T/C=50%, read-out: Abs. IC50): 1.09 µM
Bot. (%) (PRXF DU-145; bottom plateau of curve): 6%
IC50 (PRXF DU-145; read-out: Rel. IC50): 1 µM
Top (%) (PRXF DU-145; top plateau of curve): 105%
